Test results published in patent publication US8377948B2, “Antitumor agents and methods of their use” (The Ohio State University Research Foundation, priority 2004, dated 2013).

Test system: PC-3 cells
Experiment: MTT cell viability assay, PC-3 cells in 10% FBS medium
Format: cell-based, human
Settings: Homo sapiens, PC-3, 48 h, RPMI 1640 with 10% FBS, means ± S.D. (n = 6)
Procedure: PC-3 (p53−/−) human androgen-nonresponsive prostate cancer cells were purchased from the American Type Tissue Collection (Manassas, Va.). Cells were cultured in RPMI 1640 medium (Gibco, Grand Island, N.Y.) supplemented with 10% fetal bovine serum (FBS; Gibco) at 37° C. in a humidified incubator containing 5% CO2.
Effect of the test agent on cell viability was assessed by the MTT {[3-(4,5-dimethylthiazol-2-yl)-2,5-diphenyl-2H-tetrazolium bromide]} assay in 96-well, flat-bottomed plates, in which 8,000 PC-3 or DU-145 cells/well were seeded. Cells were exposed to the test agent at the indicated concentrations, in six replicates, in 10% FBS-supplemented-RPMI-1640 medium at 37° C. in 5% CO2 for 48 hr. The medium was removed and replaced by 150 μL of 0.5 mg/mL of MTT in RPMI-1640 medium, and cells were incubated in the CO2 incubator at 37° C. for 2 h. Supernatants were removed from the wells, and the reduced MTT dye was solubilized with 200 μL/well DMSO. Absorbance was determined on a plate reader at 570 nm.
All compounds were evaluated for their ability to induce apoptotic death in human androgen-independent PC-3 prostate cancer in RPMI 1640 medium containing 10% fetal bovine serum (FBS). For representative compounds tested in DU-145 and LNCaP prostate cancer cells, the IC50 values for inhibiting cell proliferation were similar in these three cell lines irrespective of differences in androgen sensitivity, PTEN mutation, the functional status of p53 and Rb, and other biomarkers.

Row | SMILES | IC50
1 | COc1cc2nc(N3CCN(C(=O)c4ccc(Cl)cc4)CC3)nc(N)c2cc1OC [Compound 1, [4-(4-Amino-6,7-dimethoxy-quinazolin-2-yl)-piperazin-1-yl]-(4-chloro-phenyl)-methanone] | 60 ± 8 µM
2 | COc1cc2nc(N3CCN(C(=O)c4ccc(C#N)cc4)CC3)nc(N)c2cc1OC [Compound 2, 4-[4-(4-Amino-6,7-dimethoxy-quinazolin-2-yl)-piperazine-1-carbonyl]-benzonitrile] | 68 ± 6 µM
3 | COc1cc2nc(N3CCN(C(=O)OCc4ccccc4)CC3)nc(N)c2cc1OC [Compound 3, 4-(4-Amino-6,7-dimethoxy-quinazolin-2-yl)-piperazine-1-carboxylic acid benzyl ester] | 63 ± 6 µM
4 | COc1cc2nc(N3CCN(C(=O)c4cccc(C#N)c4)CC3)nc(N)c2cc1OC [Compound 4, 3-[4-(4-Amino-6,7-dimethoxy-quinazolin-2-yl)-piperazine-1-carbonyl]-benzo-nitrile] | 82 ± 5 µM
5 | COc1cc2nc(N3CCN(C(=O)c4ccc([N+](=O)[O-])cc4)CC3)nc(N)c2cc1OC [Compound 5, [4-(4-Amino-6,7-dimethoxy-quinazolin-2-yl)-piperazin-1-yl]-(4-nitro-phenyl)-methanone] | 75 ± 11 µM
6 | COc1ccc(C(=O)N2CCN(c3nc(N)c4cc(OC)c(OC)cc4n3)CC2)cc1OC [Compound 6, [4-(4-Amino-6,7-dimethoxy-quinazolin-2-yl)-piperazin-1-yl]-(3,4-dimethoxy-phenyl)-methanone] | 71 ± 8 µM
7 | COc1cc2nc(N3CCN(C(=O)c4cccc5ccccc45)CC3)nc(N)c2cc1OC [Compound 7, [4-(4-Amino-6,7-dimethoxy-quinazolin-2-yl)-piperazin-1-yl]-naphthalen-1-yl-methanone] | 59 ± 4 µM
8 | COc1cc2nc(N3CCN(C(=O)c4ccc(N)cc4)CC3)nc(N)c2cc1OC [Compound 8, [4-(4-Amino-6,7-dimethoxy-quinazolin-2-yl)-piperazin-1-yl]-(4-amino-phenyl)-methanone] | > 100 µM
9 | COc1cc2nc(N3CCN(C(=O)c4ccc(C(C)(C)C)cc4)CC3)nc(N)c2cc1OC [Compound 9, [4-(4-Amino-6,7-dimethoxy-quinazolin-2-yl)-piperazin-1-yl]-(4-tert-butyl-phenyl)-methanone] | 47 ± 6 µM
10 | COc1cc2nc(N3CCN(C(=O)c4ccc(C(F)(F)F)cc4)CC3)nc(N)c2cc1OC [Compound 10, [4-(4-Amino-6,7-dimethoxy-quinazolin-2-yl)-piperazin-1-yl]-(4-trifluoromethyl-phenyl)-methanone] | > 100 µM
11 | COc1cc2nc(N3CCN(S(=O)(=O)c4ccc(Cl)cc4)CC3)nc(N)c2cc1OC [Compound 11, 2-[4-(4-Chloro-benzonesulfonyl)-piperazin-1-yl]-6,7-dimethoxy-quinazolin-4-yl-amine] | 23 ± 3 µM
12 | COc1cc2nc(N3CCN(S(=O)(=O)c4ccc(Br)cc4)CC3)nc(N)c2cc1OC [Compound 12, 2-[4-(4-Bromo-benzenesulfonyl)-piperazin-1-yl]-6,7-dimethoxy-quinazolin-4-yl-amine] | 20 ± 2 µM
13 | COc1cc2nc(N3CCN(S(=O)(=O)c4ccc(I)cc4)CC3)nc(N)c2cc1OC [Compound 13, 2-[4-(4-Iodo-benzenesulfonyl)-piperazin-1-yl]-6,7-dimethoxy-quinazolin-4-yl-amine] | 15 ± 2 µM
14 | COc1cc2nc(N3CCN(S(=O)(=O)c4ccc(Cl)s4)CC3)nc(N)c2cc1OC [Compound 14, 2-[4-(5-Chloro-thiophene-2-sulfonyl)-piperazin-1-yl]-6,7-dimethoxy-quinazolin-4-ylamine] | 25 ± 3 µM
15 | COc1cc2nc(N3CCN(S(=O)(=O)c4ccccc4[N+](=O)[O-])CC3)nc(N)c2cc1OC [Compound 15, 6,7-Dimethoxy-2-[4-(2-nitro-benzenesulfonyl)-piperazin-1-yl]-quinazolin-4-yl-amine] | 35 ± 4 µM
16 | COc1cc2nc(N3CCN(S(=O)(=O)c4cccc([N+](=O)[O-])c4)CC3)nc(N)c2cc1OC [Compound 16, 6,7-Dimethoxy-2-[4-(3-nitro-benzenesulfonyl)-piperazin-1-yl]-quinazolin-4-yl-amine] | 32 ± 5 µM
17 | COc1cc2nc(N3CCN(S(=O)(=O)c4ccc([N+](=O)[O-])cc4)CC3)nc(N)c2cc1OC [Compound 17, 6,7-Dimethoxy-2-[4-(4-nitro-benzenesulfonyl)-piperazin-1-yl]-quinazolin-4-yl-amine] | 36 ± 3 µM

Row | SMILES | IC50
18 | COc1cc2nc(N3CCN(S(=O)(=O)c4ccc(C)cc4)CC3)nc(N)c2cc1OC [Compound 18, 6,7-Dimethoxy-2-[4-(toluene-4-sulfonyl)-piperazin-1-yl]-quinazolin-4-ylamine] | 30 ± 2 µM
19 | COc1cc2nc(N3CCN(S(=O)(=O)c4ccc(C(F)(F)F)cc4)CC3)nc(N)c2cc1OC [Compound 19, 6,7-Dimethoxy-2-[4-(4-trifluoromethyl-benzenesulfonyl)-piperazin-1-yl]-quinazolin-4-yl-amine] | 27 ± 3 µM
20 | COc1ccc(S(=O)(=O)N2CCN(c3nc(N)c4cc(OC)c(OC)cc4n3)CC2)cc1 [Compound 20, 6,7-Dimethoxy-2-[4-(4-methoxy-benzenesulfonyl)-piperazin-1-yl]-quinazolin-4-yl-amine] | 39 ± 4 µM
21 | COc1cc2nc(N3CCN(S(=O)(=O)c4ccc(OC(F)(F)F)cc4)CC3)nc(N)c2cc1OC [Compound 21, 6,7-Dimethoxy-2-[4-(4-trifluoromethoxy-benzenesulfonyl)-piperazin-1-yl]-quinazolin-4-yl-amine] | 25 ± 2 µM
22 | COc1cc2nc(N3CCN(S(=O)(=O)c4ccc(S(C)(=O)=O)cc4)CC3)nc(N)c2cc1OC [Compound 22, 2-[4-(4-Methanesulfonyl-benzenesulfonyl)-piperazin-1-yl]-6,7-dimethoxy-quinazolin-4-ylamine] | 17 ± 3 µM
23 | COc1cc2nc(N3CCN(S(=O)(=O)c4ccc(C(C)(C)C)cc4)CC3)nc(N)c2cc1OC [Compound 23, 2-[4-(4-tert-Butyl-benzenesulfonyl)-piperazin-1-yl]-6,7-dimethoxy-quinazolin-4-ylamine] | 4 to 5 µM
24 | COc1cc2nc(N3CCN(S(=O)(=O)c4cccc(C(=O)O)c4)CC3)nc(N)c2cc1OC [Compound 24, 3-[4-(4-Amino-6,7-dimethoxy-quinazolin-2-yl)-piperazine-1-sulfonyl]-benzoic acid] | 53 ± 4 µM
25 | COc1cc2nc(N3CCN(S(=O)(=O)c4cc(Cl)ccc4Cl)CC3)nc(N)c2cc1OC [Compound 26, 2-[4-(2,5-Dichloro-benzenesulfonyl)-piperazin-1-yl]-6,7-dimethoxy-quinazolin-4-ylamine] | 60 ± 7 µM
26 | COc1cc2nc(N3CCN(S(=O)(=O)c4ccc(N)cc4N)CC3)nc(N)c2cc1OC [Compound 27, 4-[4-(4-Amino-6,7-dimethoxy-quinazolin-2-yl)-piperazine-1-sulfonyl]-benzene-1,3-diamine] | 67 ± 5 µM
27 | COc1cc2nc(N3CCN(S(=O)(=O)c4cc(C(=O)O)c(Cl)cc4F)CC3)nc(N)c2cc1OC [Compound 28, 5-[4-(4-Amino-6,7-dimethoxy-quinazolin-2-yl)-piperazine-1-sulfonyl]-2-chloro-4-fluoro-benzoic acid] | 56 ± 4 µM
28 | COc1cc2nc(N3CCN(S(=O)(=O)c4cc(C(=O)O)c(Cl)cc4Cl)CC3)nc(N)c2cc1OC [Compound 29, 5-[4-(4-Amino-6,7-dimethoxy-quinazolin-2-yl)-piperazine-1-sulfonyl]-2,4-dichloro-benzoic acid] | 52 ± 6 µM
29 | COc1cc2nc(N3CCN(S(=O)(=O)c4cccc5ccccc45)CC3)nc(N)c2cc1OC [Compound 30, 6,7-Dimethoxy-2-[4-(naphthalene-1-sulfonyl)-piperazin-1-yl]-quinazolin-4-yl-amine] | 14 ± 2 µM
30 | COc1cc2nc(N3CCN(S(=O)(=O)c4ccc5ccccc5c4)CC3)nc(N)c2cc1OC [Compound 31, 6,7-Dimethoxy-2-[4-(naphthalene-2-sulfonyl)-piperazin-1-yl]-quinazolin-4-yl-amino] | 15 ± 2 µM
31 | COc1cc2nc(N3CCN(S(=O)(=O)c4cccc5c(N(C)C)cccc45)CC3)nc(N)c2cc1OC [Compound 32, 2-[4-(5-Dimethylamino-naphthalene-1-sulfonyl)-piperazin-1-yl]-6,7-dimethoxy-quinazolin-4-ylamine] | 29 ± 4 µM
32 | COc1cc2nc(N3CCN(S(=O)(=O)c4ccc(-c5cc6ccccc6c6ccccc56)cc4)CC3)nc(N)c2cc1OC [Compound 35, 6,7-Dimethoxy-2-[4-(4-phenanthren-9-yl-benzenesulfonyl)-piperazin-1-yl]-quinazolin-4-ylamine] | 4 to 5 µM
33 | COc1cc2nc(N3CCN(S(=O)(=O)c4ccc(-c5ccc(C)cc5)cc4)CC3)nc(N)c2cc1OC [Compound 36, 6,7-Dimethoxy-2-[4-(4′-methyl-biphenyl-4-sulfonyl)-piperazin-1-yl]-quinazolin-4-yl-amine] | 3.4 ± 0.4 µM

Same assay, conditions: RPMI 1640 with 10% FBS, 48 h, means ± S.D. (n = 6)

Row | SMILES | IC50
34 | COc1cc2nc(N3CCN(S(=O)(=O)c4ccc(C(C)(C)C)cc4)CC3)nc(N)c2cc1OC [Compound 23, 2-[4-(4-tert-Butyl-benzenesulfonyl)-piperazin-1-yl]-6,7-dimethoxy-quinazolin-4-ylamine] | 4.1 ± 0.7 µM
35 | COc1cc2nc(N3CCN(S(=O)(=O)c4c(C(C)C)cc(C(C)C)cc4C(C)C)CC3)nc(N)c2cc1OC [Compound 34, 6,7-Dimethoxy-2-[4-(2,4,6-triisopropyl-benzonesulfonyl)-piperazin-1-yl]-quinazolin-4-yl-amine] | 24 ± 3 µM
36 | COc1cc2nc(N3CCN(S(=O)(=O)c4ccc(-c5cc6ccccc6c6ccccc56)cc4)CC3)nc(N)c2cc1OC [Compound 35, 6,7-Dimethoxy-2-[4-(4-phenanthren-9-yl-benzenesulfonyl)-piperazin-1-yl]-quinazolin-4-ylamine] | 5.2 ± 0.9 µM
